Assay results as given in ChEMBL document CHEMBL1770115, “Fused heterocyclic M1 positive allosteric modulators” (Bioorg Med Chem Lett, 2011).
Calls of active or inactive are those of the source. No cut-off for these calls is given here.

Experiments:
[1] = target: T1, Muscarinic acetylcholine receptor M1 (Homo sapiens) (UniProt P11229); test: Positive allosteric modulation of human muscarinic M1 receptor expressed in CHO cells assessed as effect on acetylcholine-induced calcium mobilization by FLIPR assay; type: functional, cell-based
T1 sequence (whole entry): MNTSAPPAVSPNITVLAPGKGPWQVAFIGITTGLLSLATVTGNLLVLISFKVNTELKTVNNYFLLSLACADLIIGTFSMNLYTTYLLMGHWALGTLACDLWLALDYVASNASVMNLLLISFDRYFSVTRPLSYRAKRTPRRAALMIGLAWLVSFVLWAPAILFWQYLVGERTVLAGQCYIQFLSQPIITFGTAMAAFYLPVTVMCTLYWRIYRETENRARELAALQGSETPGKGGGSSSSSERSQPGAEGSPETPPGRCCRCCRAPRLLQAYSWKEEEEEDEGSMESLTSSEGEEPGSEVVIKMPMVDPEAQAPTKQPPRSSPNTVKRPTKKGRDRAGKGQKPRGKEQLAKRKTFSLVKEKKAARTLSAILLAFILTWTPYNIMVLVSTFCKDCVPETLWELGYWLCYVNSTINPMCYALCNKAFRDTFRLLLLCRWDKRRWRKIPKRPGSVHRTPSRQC

Plasma = test: Plasma concentration in Sprague-Dawley rat at 10 mg/kg, po; type: ADME, organism-based; design: dose 10 mg/kg, route oral; details: in vivo
Brain = test: Drug concentration in Sprague-Dawley rat barin at 10 mg/kg, po; type: ADME, organism-based; design: dose 10 mg/kg, route oral; details: in vivo, read-out: Drug uptake
Cerebrospinal fluid = test: Drug concentration in Sprague-Dawley rat cerebrospinal fluid at 10 mg/kg, po; type: ADME, organism-based; design: dose 10 mg/kg, route oral; details: in vivo, read-out: Drug uptake
[2] = Ratio of drug level in brain to plasma in Sprague-Dawley rat at 10 mg/kg, po; type: ADME, organism-based; design: dose 10 mg/kg, route oral
[3] = target: T1, Muscarinic acetylcholine receptor M1 (Homo sapiens); test: Positive allosteric modulation of human muscarinic M1 receptor expressed in CHO cells assessed as potentiation of acetylcholine-induced calcium mobilization at 1 uM by FLIPR assay relative to control; type: functional, cell-based
[4] = target: T1, Muscarinic acetylcholine receptor M1 (Homo sapiens); test: Agonist activity at human muscarinic M1 receptor expressed in CHO cells assessed as increase of calcium mobilization at 100 uM by FLIPR assay; type: functional, cell-based

Compound	IP [1]	further results
Cn1ncc2cc(Cn3cc(C(=O)O)c(=O)c4c(F)cccc43)ccc21	72 nM	concentration (Plasma): 13200 nM; concentration (Brain): 538 nM; concentration (Cerebrospinal fluid): 155 nM; Kp [2]: 0.04
COc1ccc(/C=C/Cn2cc(C(=O)O)c(=O)c3cccc(F)c32)cc1	380 nM	–
O=C(O)c1cn(C/C=C/c2cccnc2)c2c(F)cccc2c1=O	> 10000 nM	–
Cc1ccccc1/C=C/Cn1cc(C(=O)O)c(=O)c2cccc(F)c21	> 10000 nM	–
N#Cc1ccc(/C=C/Cn2cc(C(=O)O)c(=O)c3cccc(F)c32)cc1	1000 nM	–
CN1CCN(C)c2cc(Cn3cc(C(=O)O)c(=O)c4c(F)cccc43)ccc21	3800 nM	–
COc1ccccc1/C=C/Cn1cc(C(=O)O)c(=O)c2cccc(F)c21	> 10000 nM	–
O=C(O)c1cn(Cc2ccc3ccccc3c2)c2c(F)cccc2c1=O	80 nM	–
Cc1ccc(/C=C/Cn2cc(C(=O)O)c(=O)c3cccc(F)c32)cc1	910 nM	–
O=C1Cc2cc(Cn3cc(C(=O)O)c(=O)c4c(F)cccc43)ccc2N1	81 nM	–
O=C(O)c1cn(Cc2ccc3ccccc3c2)c2c(F)ccc(F)c2c1=O	266 nM	–
O=C(O)c1cn(C/C=C/c2ccccc2)c2c(F)cccc2c1=O	270 nM	–
O=C(O)c1cn(C/C=C/c2ccc(Cl)cc2)c2c(F)cccc2c1=O	320 nM	–
O=C(O)c1cn(CC#Cc2ccccc2)c2c(F)cccc2c1=O	3400 nM	–
CN(C)c1ccc(/C=C/Cn2cc(C(=O)O)c(=O)c3cccc(F)c32)cc1	860 nM	–

Now from value to compound, other results behind:

IP [1]	Compound	further results
104 nM	O=C(O)c1cn(Cc2ccc3[nH]ncc3c2)c2cccc(F)c2c1=O	–
617 nM	O=C(O)c1cn(Cc2ccc3[nH]c(=O)[nH]c3c2)c2cccc(F)c2c1=O	–
142 nM	Cn1cc2cc(Cn3cc(C(=O)O)c(=O)c4c(F)cccc43)ccc2n1	–
69 nM	O=C(O)c1cn(Cc2ccc3ccccc3c2)c2cccc(F)c2c1=O	concentration (Plasma): 676 nM; concentration (Brain): 178 nM; concentration (Cerebrospinal fluid): 18 nM; Kp [2]: 0.26; fold change (FC) [3]: 100; Activity [4]: Active
120 nM	O=C(O)c1cn(C/C=C/c2ccc(F)cc2)c2c(F)cccc2c1=O	–
897 nM	O=C(O)c1cn(Cc2ccc3ccccc3n2)c2cccc(F)c2c1=O	–
370 nM	O=C(O)c1cn(C/C=C/c2cccc(F)c2)c2c(F)cccc2c1=O	–
610 nM	O=C(O)c1cn(C/C=C/c2ccncc2)c2c(F)cccc2c1=O	–
97 nM	O=C(O)c1cn(Cc2ccc3c(c2)CCC3O)c2cccc(F)c2c1=O (configuration not stated)	–
1400 nM	COc1cccc(/C=C/Cn2cc(C(=O)O)c(=O)c3cccc(F)c32)c1	–
250 nM	Cc1cccc(/C=C/Cn2cc(C(=O)O)c(=O)c3cccc(F)c32)c1	–
624 nM	CN1CCCc2cc(Cn3cc(C(=O)O)c(=O)c4c(F)cccc43)ccc21	–
1800 nM	O=C(O)c1cn(Cc2nc3ccccc3s2)c2cccc(F)c2c1=O	–
84 nM	O=C(O)c1cn(Cc2ccc3c(c2)OCCO3)c2cccc(F)c2c1=O	concentration (Plasma): 3700 nM; concentration (Brain): 577 nM; concentration (Cerebrospinal fluid): 119 nM; Kp [2]: 0.15
> 10000 nM	CN1CCc2cc(Cn3cc(C(=O)O)c(=O)c4c(F)cccc43)ccc21	–
240 nM	O=C(O)c1cn(C/C=C/c2ccccc2F)c2c(F)cccc2c1=O	–
5200 nM	O=C(O)c1cn(C/C=C/c2ccccn2)c2c(F)cccc2c1=O	–
459 nM	O=C(O)c1cn(Cc2ccc3ncccc3c2)c2cccc(F)c2c1=O	–
